Patent publication US4311709A, “Loweralkyl substituted diphenyl polyamine as an antimicrobial agent” (priority 1979, dated 1982)

Key:
E. coli [1] = experiment: MIC on Mueller-Hinton agar plates, mastitis pathogens; format: cell-based; details: Escherichia coli; 18-24 hours at 37° C.; less than one colony per plate; duplicate
Method: (§1) The products of this inventions have a broad inhibitory spectrum and high potency. One test system employed seven different mastitis pathogens inoculated onto separate Mueller-Hinton agar plates which contained 1, 5, 10, 20, 40, 80 or 100 mcg./ml. of the cited dihydrochloride final concentration. After incubation for 18-24 hours at 37° C., the minimal inhibitory concentration was determined as that showing less than one colony per plate; all assays were made in duplicate. The MIC's in mcg./ml. observed were: Streptococcus dysgalactiae, 1; Streptococcus uberis, 1; Streptococcus agalactiae, 1; S. aureus, 5; E. coli, 5; Klebsiella sp., 5; and Pseudomonas aeruginosa, 80.

Klebsiella sp. [2] = experiment: as above; format: cell-based; details: 18-24 hours at 37° C., less than one colony per plate, duplicate
Method: as §1

Pseudomonas aeruginosa [3] = experiment: as above; format: cell-based; details: 18-24 hours at 37° C., less than one colony per plate, duplicate
Method: as §1

S. aureus [4] = experiment: as above; format: cell-based; details: Staphylococcus aureus; 18-24 hours at 37° C.; less than one colony per plate; duplicate
Method: as §1

Streptococcus agalactiae [5] = experiment: as above; format: cell-based; details: 18-24 hours at 37° C., less than one colony per plate, duplicate
Method: as §1

[6] = system: Streptococcus dysgalactiae; experiment: as above; format: cell-based; details: 18-24 hours at 37° C., less than one colony per plate, duplicate
Method: as §1

Streptococcus uberis [7] = experiment: as above; format: cell-based; details: 18-24 hours at 37° C., less than one colony per plate, duplicate
Method: as §1

E. coli [8] = experiment: Excised cow's udder teat dip in vitro (modified National Mastitis Council's Protocol A); details: Escherichia coli, 10 min, 0.5% solution
Method: (§2) Additional efficacy studies were made using a laboratory modification of the National Mastitis Council's Protocol A with excised cow's udder in vitro. Prepared teats were dipped to a depth of approximately 15 mm. into a skim milk inoculum containing the test bacteria and then allowed to drain for 5 minutes. Then each teat was dipped into a distilled water solution of the cited dihydrochloride salt using concentrations which ranged from 0.05 up to 1% to a depth of 25 mm. After a period of 10 minutes the removal of any surviving organisms was accomplished by rinsing the teats using 5 ml. of a quenching solution of lecithin (0.05%), tween-80 (0.5%) and sodium thiosulfate (0.5%). The rinse solutions were diluted in sterile saline, plated on an appropriate medium and incubated at 37° C. for 18-20 hours. Colonies were then counted for only those plates with 15-300 colonies, and all dilutions were plated in duplicate. The percent reduction in microorganisms on the teat surfaces was determined using as controls the inoculated teats dipped in sterile distilled water. […] A 0.1% solution caused a 99% reduction for Pseudomonas aeruginosa.

Klebsiella sp. [9] = experiment: as above; details: 10 min, 0.5% solution
Method: as §2

Pseudomonas aeruginosa [10] = experiment: as above; details: 10 min
Method: as §2

S. aureus [11] = experiment: as above; details: Staphylococcus aureus, 10 min, 0.5% solution
Method: as §2

Streptococcus agalactiae [12] = experiment: as above; details: 10 min, 0.5% solution
Method: as §2

[13] = system: Streptococcus dysgalactiae; experiment: as above; details: 10 min, 0.5% solution
Method: as §2

Streptococcus uberis [14] = experiment: as above; details: 10 min, 0.5% solution
Method: as §2

in vivo = details: mouse, mice, oral, 100 mg./ml. in 1% aqueous methylcellulose (100 cps), read-out: acute oral LD50
Excerpt: (§3) Thus instead of contributing to or initiating skin cracking and drying the diaminopropanol derivative should promote healing of damaged skin areas whether inflicted mechanically, by weather conditions or as the result of exposure to toxic chemical treatments.

[15] = system: intact or abraded dorsal skin of shaved areas (rabbits); experiment: Skin irritation, occlusive dressing 24 hours; format: in vivo
Excerpt: as §3

eye = details: in vivo
Excerpt: as §3

[16] = Residues in milk after application to the udder; format: in vivo, cow
Excerpt: The sensitivity of the analytical method employed met the stringent criteria set by various governmental agencies.

[17] = Toxicity and skin irritation, overall; format: in vivo
Excerpt: as §3

[18] = system: Gram positive, gram negative bacteria, certain yeasts and various fungi; experiment: Antimicrobial spectrum: bacteria, yeasts and fungi destroyed or rendered static; format: cell-based
[19] = system: gram negative pathogens such as Pseudomonas species; details: background statement; cited from earlier work

SMILES: CC(C)c1ccc(CCC(CCc2ccc(C(C)C)cc2)NCC(O)CN)cc1.Cl.Cl.O (stereo not shown) [cited dihydrochloride, 1-amino-3-{{3-[4-(1-methylethyl)phenyl]-1-{2-[4-(1-methylethyl)phenyl]ethyl}propyl}amino]-2-propanol dihydrochloride monohydrate]
- MIC (E. coli [1]): 5 µg/mL
- MIC (Klebsiella sp. [2]): 5 µg/mL
- MIC (Pseudomonas aeruginosa [3]): 80 µg/mL
- MIC (S. aureus [4]): 5 µg/mL
- MIC (Streptococcus agalactiae [5]): 1 µg/mL
- MIC [6]: 1 µg/mL
- MIC (Streptococcus uberis [7]): 1 µg/mL
- killing at 0.5 % (E. coli [8]): > 99.8%
- killing at 0.5 % (Klebsiella sp. [9]): > 99.8%
- killing at 0.1 % (Pseudomonas aeruginosa [10]; 0.1% solution, read-out: reduction): 99%
- killing at 0.5 % (Pseudomonas aeruginosa [10]; 0.5% solution): > 99.8%
- killing at 0.5 % (S. aureus [11]): 98 to 99.8%
- killing at 0.5 % (Streptococcus agalactiae [12]): > 99.8%
- killing at 0.5 % [13]: 98 to 99.8%
- killing at 0.5 % (Streptococcus uberis [14]): > 99.8%
- LD50 (in vivo): 1300 mg/kg
- skin irritation ([15]; 1% solution in distilled water, intact or abraded skin, 24 hours occlusive, observed two weeks): essentially non-irritating
- skin irritation ([15]; 5% in distilled water): slightly irritating
- signs of skin irritation remaining ([15]; 5% in distilled water, after seven days): no signs remaining after seven days
- eye irritation (eye): very slightly irritating
- time for eye effects to disappear (eye): ≤ 24 h
- residues in the milk ([16]; 1% solution applied to the udder, preliminary experiments): no detectable residues
- skin penetration ([16]; bovine): appears unable to penetrate the skin
- skin irritation, overall ([17]; in vivo): practically non-irritating on skin
- toxicity ([17]; overall statement): low toxicity

SMILES: CC(C)c1ccc(CCC(CCc2ccc(C(C)C)cc2)NCC(O)CN)cc1 (stereo not shown) [Example 1, 1-Amino-3-{{3-[4-(1-methylethyl)phenyl]-1-{2-[4-(1-methylethyl)phenyl]ethyl}propyl}amino]-2-propanol]
- concentrations by which many are controlled ([18]; many organisms): one to one-hundred
- concentrations by which bacteria, yeasts and fungi are destroyed or rendered static ([18]; overall range): less than one to one-thousand

SMILES: [H]/N=C(\N/C(=N/[H])NCCCCCCNC(=N)NC(=N)Nc1ccc(Cl)cc1)Nc1ccc(Cl)cc1 [chlorhexidine]
- effectiveness against gram negative pathogens [19]: poorly effective
